Usually IC50 stands for the concentration needed to halve the response being measured.

Read-outs that look alike come from different tables or passages of the source. Some results are limits rather than exact numbers.

Experiment [1] addresses PDE4D2 (Homo sapiens (Human), UniProt Q08499). The experiment can be described thus: Effect of compounds on PDE4D2 activity (fluorescence polarization kit). The format is biochemical. As for the experimental part:
FP was usually represented by mP value.
[formula] • I∥ (S520): fluorescence intensity in parallel direction • I⊥ (P520): fluorescence intensity in perpendicular direction • G: G factor=1
[formula] • mP(sample): mP of the test compound in a reaction well • mP(negative control): mP in the negative control well • mP(positive control): mP in the positive control well
According to the calculated inhibition rate at each concentration, the IC50 value of each compound was calculated by GraphPad Prism 8 software.
Background: Polarisation of emitted light reports the rotation of a fluorescent probe.

Experiment [2] deals with human peripheral blood mononuclear cells (TNF-α release). The experiment can be described thus: Inhibition of LPS-induced TNF-α release from human peripheral blood mononuclear cells in vitro. The settings on record: 4 h; for IC50: read-out: Re IC50; for Emax: read-out: Max inhibition (%). The format is cell-based. As for the experimental part: 5. Detection of Inhibitory Activity of Compounds on the Release of Tumor Necrosis Factor-α (TNF-α) from Human Peripheral Blood Mononuclear Cells Induced by Lipopolysaccharide (LPS) In Vitro
The concentration of hPBMC cells was adjusted to 0.25×10^6 cells/mL with RPMI1640 medium and inoculated into a 96-well plate in an amount of 50000 cells per well. […] Incubation was carried out for 4 h in an incubator at 37° C. and 5% CO2. The cell supernatant was collected, and the content of TNF-α in the supernatant sample was detected by human TNF-α Elisa quantitative test kit (Sino Biological, Cat #KIT10602). The IC50 value was calculated using GraphPad Prism software.

For experiment [3], the target named is PDE4B2 (Homo sapiens (Human), UniProt Q07343). The experiment can be described thus: Effect of compounds on PDE4B2 activity (fluorescence polarization kit).
Sequence of PDE4B2 (Q07343 other isoform, or with tags, fused parts or gaps): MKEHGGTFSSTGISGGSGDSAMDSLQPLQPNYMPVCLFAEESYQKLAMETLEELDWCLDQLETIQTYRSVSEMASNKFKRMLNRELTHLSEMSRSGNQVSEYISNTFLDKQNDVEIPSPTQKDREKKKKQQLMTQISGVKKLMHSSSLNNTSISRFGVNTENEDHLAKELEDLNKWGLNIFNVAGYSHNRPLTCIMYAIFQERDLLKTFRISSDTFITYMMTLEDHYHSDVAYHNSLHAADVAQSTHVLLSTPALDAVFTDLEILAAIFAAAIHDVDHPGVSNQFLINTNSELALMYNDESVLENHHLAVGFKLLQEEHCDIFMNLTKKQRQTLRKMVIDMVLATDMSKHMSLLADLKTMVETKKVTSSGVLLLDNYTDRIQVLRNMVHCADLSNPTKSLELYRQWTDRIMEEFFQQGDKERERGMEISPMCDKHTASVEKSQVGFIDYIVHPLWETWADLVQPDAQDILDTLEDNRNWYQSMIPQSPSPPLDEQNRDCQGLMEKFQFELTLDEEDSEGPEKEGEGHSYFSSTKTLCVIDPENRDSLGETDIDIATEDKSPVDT
Excerpt: [formula] • I∥ (S535): fluorescence intensity in parallel direction • I⊥ (P535): fluorescence intensity in perpendicular direction • G: G factor=1
[4] abbreviates: relative IC50, hPBMC, 100 ng/mL LPS.
Setting [5] is: Homo sapiens, PBMC, hPBMC, 100 ng/mL LPS.

Sequence of PDE4D2 (Q08499 303-809, change not shown): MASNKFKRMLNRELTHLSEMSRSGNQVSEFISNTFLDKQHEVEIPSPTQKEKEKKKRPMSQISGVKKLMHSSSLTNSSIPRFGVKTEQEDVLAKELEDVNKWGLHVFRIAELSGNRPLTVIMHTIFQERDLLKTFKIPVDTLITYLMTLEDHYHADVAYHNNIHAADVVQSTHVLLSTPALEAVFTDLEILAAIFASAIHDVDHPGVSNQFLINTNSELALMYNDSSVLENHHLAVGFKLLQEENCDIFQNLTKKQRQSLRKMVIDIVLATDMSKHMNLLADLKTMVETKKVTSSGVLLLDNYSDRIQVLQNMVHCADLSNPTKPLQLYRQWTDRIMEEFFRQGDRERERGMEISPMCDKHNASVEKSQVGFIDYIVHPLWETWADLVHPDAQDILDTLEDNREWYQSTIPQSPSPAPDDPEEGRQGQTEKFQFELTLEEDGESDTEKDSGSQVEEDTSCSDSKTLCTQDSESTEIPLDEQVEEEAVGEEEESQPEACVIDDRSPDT

As to `C#Cc1cnc(C2=CCN(c3nc4c(c(NC5([C@H](C)O)CCC5)n3)[S@@+]([O-])CC4)CC2)nc1` [Compound 96-4], the IC50 in experiment [1], in experiment [2] (setting [4]) and in experiment [3] (read-out: PDE4B2 IC50) was 10 to 50 nM each time. The “Max inhibition (%)” value in experiment [2] (hPBMC, 100 ng/mL LPS) was 70.23%.

Regarding `CC#Cc1ccc(C2=CCN(c3nc4c(c(NC5(COC(N)=O)CCC5)n3)[S@+]([O-])CC4)CC2)nc1` [Compound 98], the IC50 in experiment [1] is under 10 nM; in experiment [2] (Homo sapiens, PBMC), under 10 nM; in experiment [3], under 10 nM. Moreover, the Emax in experiment [2] (setting [5]) turned out to be 72.7%.

In the case of `CC#Cc1ccc(C2=CCN(c3nc4c(c(NC5(CNC(=O)OC)CCC5)n3)[S@+]([O-])CC4)CC2)nc1` [Compound 100], the IC50 in experiment [1] is under 10 nM; in experiment [2] (Homo sapiens, PBMC), under 10 nM; in experiment [3], under 10 nM. The Emax in experiment [2] (setting [5]) turned out to be 79.2%.

In the case of `CC#Cc1ccc(C2=CCN(c3nc4c(c(NC(C)(C)COC(N)=O)n3)[S@+]([O-])CC4)CC2)nc1` [Compound 101], the IC50 in experiment [1] was under 10 nM; in experiment [2] (Homo sapiens, PBMC) it was under 10 nM; in experiment [3], under 10 nM. Also, the Emax in experiment [2] (setting [5]) was found to be 80%.

Regarding `CNC(=O)OCC(C)(C)Nc1nc(N2CC=C(c3ncc(Cl)cn3)CC2)nc2c1[S@+]([O-])CC2` [Compound 104], the IC50 in experiment [1] is 10 to 50 nM; in experiment [2] (Homo sapiens, PBMC) it was 10 to 50 nM; in experiment [3] it was 10 to 50 nM. The Emax in experiment [2] (setting [5]) turned out to be 78.8%.

On to `C#Cc1ccc(C2=CCN(c3nc4c(c(NC(C)(C)COC(N)=O)n3)[S@+]([O-])CC4)CC2)nc1` [Compound 105], for which the IC50 in experiment [1] was under 10 nM; in experiment [2] (Homo sapiens, PBMC), under 10 nM; in experiment [3], under 10 nM. Also, the Emax in experiment [2] (setting [5]) worked out at 84%.

For `CC(C)(COC(N)=O)Nc1nc(N2CC=C(c3ncc(N4CC[Si](C)(C)CC4)cn3)CC2)nc2c1[S@+]([O-])CC2` [Compound 106], the IC50 in experiment [1], in experiment [2] (setting [4]) and in experiment [3] (read-out: PDE4B2 IC50) was 10 to 50 nM in each case. Further, the “Max inhibition (%)” value in experiment [2] (hPBMC, 100 ng/mL LPS) came to 98.36%.

For `CN1C[C@@H](Nc2nc(N3C[C@H]4CN(c5ccc6c(c5)CC6)C[C@H]4C3)nc3c2[S@@+]([O-])CC3)CCC1=O` [Compound 109-4], the IC50 in experiment [1], in experiment [2] (setting [4]) and in experiment [3] (read-out: PDE4B2 IC50) was under 10 nM in each case. In addition, the “Max inhibition (%)” value in experiment [2] (hPBMC, 100 ng/mL LPS) is on record as 85.74%.

Turning to `CC#Cc1cnc2c(c1)OC[C@@H]1CN(c3nc4c(c(NC(C)(C)COC(N)=O)n3)[S@+]([O-])CC4)CCN21` [Compound 112-1], the IC50 is 10 to 50 nM in experiment [1], 10 to 50 nM in experiment [2] (setting [4]) and under 10 nM in experiment [3] (read-out: PDE4B2 IC50). Moreover, the “Max inhibition (%)” value in experiment [2] (hPBMC, 100 ng/mL LPS) was 83.76%.

As to `COC(=O)NCC(C)(C)Nc1nc(N2CC=C(c3ncc(C4CC4)cn3)CC2)nc2c1[S@+]([O-])CC2` [Compound 117], the IC50 is 10 to 50 nM in experiment [1]; 10 to 50 nM in experiment [2] (Homo sapiens, PBMC); 10 to 50 nM in experiment [3]. Moreover, in experiment [2] (setting [5]), the Emax was found to be 86%.

Consider `COC(=O)NCC(C)(C)Nc1nc(N2C[C@@H]3CC(c4ncc5c(n4)CC5)=C[C@@H]3C2)nc2c1[S@+]([O-])CC2` [Compound 139-1], for which the IC50 in experiment [1], in experiment [2] (setting [4]) and in experiment [3] (read-out: PDE4B2 IC50) was under 10 nM each time. Also, the “Max inhibition (%)” value in experiment [2] (hPBMC, 100 ng/mL LPS) was found to be 92.69%.

For the compound `CC#Cc1cnc2c(c1)OC[C@@H]1CN(c3nc4c(c(NC(C)(C)CNC(=O)OC)n3)[S@+]([O-])CC4)CCN21` [Compound 140-1], the IC50 in experiment [1] was 10 to 50 nM; in experiment [2] (setting [4]) it was under 10 nM; in experiment [3] (read-out: PDE4B2 IC50), 10 to 50 nM. Besides, the “Max inhibition (%)” value in experiment [2] (hPBMC, 100 ng/mL LPS) is recorded as 93.38%.

With `CC#Cc1cnc2c(c1)OC[C@H]1CN(c3nc4c(c(NC(C)(C)CNC(=O)OC)n3)[S@+]([O-])CC4)CCN21` [Compound 140-2], the IC50 in experiment [1] was 50 to 100 nM; in experiment [2] (setting [4]), 10 to 50 nM; in experiment [3] (read-out: PDE4B2 IC50), 10 to 50 nM. Besides, in experiment [2] (hPBMC, 100 ng/mL LPS), the “Max inhibition (%)” value turned out to be 89.58%.
